The subject of assay [1] is primary fibroblasts (IMR90) transduced with H-RasG12V. Nature of the assay: Validation: manual quantification of SA-β-gal positive cells. The assay is classed as cell-based, human. The settings on record: for % SA-β-Gal + Cells Avg: 250 nM inhibitor, +H-RasG12V IMR90, 7 additional days, >300 cells counted, triplicate. The procedure: Senescence-associated β-galactosidase (SA-β-Gal) assay has previously been described^9. Briefly, cells were fixed in 2% formaldehyde and 0.2% glutaraldehyde and washed with phosphate-buffered saline. Staining solution [40 mM Na2HPO4, 150 mM NaCl, 2 mM MgCl2, 5 mM K3Fe(CN)6, 5 mM K4Fe(CN)6, 1 mg/mL X-gal] was added with a multichannel pipette, and cells were incubated for 24 hrs. Cells were stained with DAPI (0.15 μg/mL) to visualize nuclei.
(§1) Cells with β-galactosidase (blue) positivity within the cytosol were considered positive. Cells were stained with DAPI to visualize nuclei and SAHF. Cells with punctate spots within the nuclear compartment were considered SAHF positive. Cells were imaged using a Nikon Eclipse Ni fluorescence microscope as previously described^15. Three different fields of cells were counted (total cells counted >300). These experiments were performed in triplicate. Data from validation experiments is shown as a percentage of SA-β-gal or SAHF positive cells.
These cells were then utilized in the SA-β-gal assay to examine changes in expression of SA-β-gal activity.
(§2) Other than the control, all of the tested compounds are +H-Ras^G12V. Percentage of SA-β-gal and SAHF positive cells is shown with indicated standard deviation (SD). Total cells with SA-β-gal positive cells or SAHF positive cells were counted in three separate fields (totals cells counted >300). Experiments were performed in triplicate. p-value determined by t-test.

The test system is the same in assay [2]. Nature of the assay: Validation: senescence-associated heterochromatin foci (SAHF) positive cells by DAPI staining. The settings on record: for % SAHF + Cells Avg: 250 nM inhibitor, +H-RasG12V IMR90, 9 days of culture, >300 cells counted, triplicate. The assay is classed as cell-based, human. The procedure:
as §1
After 9 days of culture, we stained the cells with DAPI to visualize the formation of SAHF.
as §2

The subject of assay [3] is primary human fibroblasts (IMR90) transduced with H-RasG12V. Nature of the assay: High-throughput senescence screen (SA-β-gal area and nuclei number, high-content imaging). Type of assay: cell-based. The settings on record: 250 nM, 96-well, normalized to DMSO control, hit = beyond one standard deviation. The procedure:
We use a model system for DIS that involves overexpressing an activated Ras in normal human fibroblast (IMR90). Upon expression of Ras, these cells undergo senescence as measured by increased β-galactosidase activity. IMR90 cells are infected with retrovirus control (496) or Ras (493). IMR90 cells were transduced over two days (Day −1 and 0) with pBABE-HRasG12V. Cells were then plated into a 96-well plate at a predetermined density (1,000 cells/well) and selected with puromycin (1 ug/mL) for two days (Day 1 and 2). The initial number of cells per well (1,000) was optimized to avoid confluence-induced growth inhibition. […] Allowing the cells to undergo senescence ([…] after puromycin selection), on day 9, cells were subjected to a quantitative SA-β-gal assay (described below) and stained with DAPI to visualize nuclei, which allowed for quantification of cell number. […]
For the screen, four fluorescence and four phase contrast images were acquired from each well of the 96-well plates with an ImageXpress Micro high-content imaging system (Molecular Devices, Sunnyvale Calif.) using the 10× objective. […] Fluorescence images were used to record DAPI staining of cell nuclei. Images were analyzed utilizing the MultiWavelength Scoring module in METAXPRESS image analysis software (Molecular Devices). […]

The next assay deals with senescence. The settings on record: literature report; cited from earlier work.
[4] abbreviates: 250 nM, RAS-expressing cells, significance p<0.05 vs DMSO.

Take `Cc1nc2cc3nc(-c4cccs4)cnc3cc2n1C` [22617-28-8, AGL2043]: the “% SA-β-Gal + Cells Avg” value in assay [1] came to 10.9%. Moreover, the “% SAHF + Cells Avg” value in assay [2] amounted to 10.2%.
For `O=c1c2ccccc2[nH]c(=S)n1CCN1CCC(=C(c2ccc(F)cc2)c2ccc(F)cc2)CC1` [120166-69-0, Diacylglycerol Kinase Inhibitor II], the “% SA-β-Gal + Cells Avg” value in assay [1] is 5.2%. Moreover, the “% SAHF + Cells Avg” value in assay [2] is 10.4%.
For `COc1ccc(S(=O)(=O)N(CCO)c2ccccc2CN(C)CC=Cc2ccc(Cl)cc2)cc1` [139298-40-1, KN-93] the same measures were 8.1% and 12.3%.
For `CCc1[nH]c(-c2ccc(OC)cc2)nc1-c1ccncc1` [172747-50-1, SB 202474] the same measures were 6.7% and 10.4%.
On to `COc1cc2ncnc(Nc3cccc(Cl)c3)c2cc1OC` [175178-82-2, AG 1478], for which, in assay [1], the “% SA-β-Gal + Cells Avg” value was 3.8%. The “% SAHF + Cells Avg” value in assay [2] worked out at 11.5%.
Regarding `O=c1c(-c2ccc(F)cc2)c(-c2ccncc2)[nH]n1-c1ccc(Cl)cc1` [219138-24-6, P38 MAPK Inhibitor], the “% SA-β-Gal + Cells Avg” value in assay [1] amounted to 5.8%. The “% SAHF + Cells Avg” value in assay [2] is on record as 16.3%.
For `O=C1NC(=O)C(c2cn(CCCn3ccnc3)c3ccccc23)=C1Nc1ccccc1` [257879-35-9, PKC β Inhibitor] the same measures were 5.5% and 8.3%.
As to `O=C(Nc1ccc(Cl)cc1)c1ccccc1NCc1ccncc1` [269390-69-4, VEGFR Tyrosine Kinase Inhibitor II], the “% SA-β-Gal + Cells Avg” value in assay [1] was 4.1%. The “% SAHF + Cells Avg” value in assay [2] is given as 13.0%.
For `Cn1sc(=O)n(Cc2ccccc2)c1=O` [327036-89-5, GSK3β Inhibitor I] the same measures were 6.5% and 7.8%.
The matching figures for `COc1cc2nccc(Oc3ccc(NC(=S)NC(=O)c4ccccc4C)cc3)c2cc1OC` [347155-76-4, PDGFR Tyrosine Kinase Inhibitor V]: 6.7% and 16.3%.
For the molecule `Oc1cccc(-c2nc(N3CCOCC3)c3oc4ncccc4c3n2)c1` [371935-74-9, PI-103], the “% SA-β-Gal + Cells Avg” value in assay [1] amounted to 4.7%. Also, the “% SAHF + Cells Avg” value in assay [2] was 43.0%. In assay [2] (setting [4]), the “Inhibition of oncogenic RAS-induced SAHF formation (validation, in words)” value is listed as “failed to prevent SAHF formation”.
For the molecule `Cc1cc(Nc2nc(-c3ccccc3)nc3ccccc23)n[nH]1` [404828-08-6, GSK-3 Inhibitor XIII], in assay [1], the “% SA-β-Gal + Cells Avg” value was determined as 8.2%. In addition, the “% SAHF + Cells Avg” value in assay [2] came to 7.0%.
For the molecule `NC(=O)c1ccc2nc(-c3ccc(Oc4ccc(Cl)cc4)cc3)[nH]c2c1` [516480-79-8, Chk2 Inhibitor II], the “% SA-β-Gal + Cells Avg” value in assay [1] worked out at 7.4%. Also, the “% SAHF + Cells Avg” value in assay [2] came out at 13.2%.
Turning to `O=c1[nH]c2ccccc2n1C1CCN(Cc2ccc(-c3nc4cc5[nH]cnc5cc4nc3-c3ccccc3)cc2)CC1` [612847-09-3, Akt Inhibitor VIII], the “% SA-β-Gal + Cells Avg” value in assay [1] amounted to 21.3%. In addition, the “Reduction of expression of SA-β-gal activity (validation, in words)” value in assay [1] (setting [4]) is “failed to reduce SA-β-gal activity”. Further, the “% SAHF + Cells Avg” value in assay [2] came to 11.3%.
In the case of `O=C1NC(=O)/C(=C/c2ccc3c(c2)OC(F)(F)O3)S1` [648449-76-7], the “Effect on SA-β-gal area and cell number (nuclei) in initial screen” value in assay [3] is on record as “no effect on SA-β-gal area or cell number”. For the same molecule, the “% SA-β-Gal + Cells Avg” value in assay [1] is 20.7%. In addition, the “% SAHF + Cells Avg” value in assay [2] is on record as 26.9%.
Consider `Cc1[nH]c(/C=C2\C(=O)Nc3ccc(S(=O)(=O)N(C)c4cccc(Cl)c4)cc32)c(C)c1C(=O)N1CCN(C)CC1` [658084-23-2, Met Kinase inhibitor], for which the “% SA-β-Gal + Cells Avg” value in assay [1] was 5.0%. Moreover, in assay [2], the “% SAHF + Cells Avg” value is reported as 14.7%.
On to `c1cc(-c2cnn3cc(-c4ccc(OCCN5CCCCC5)cc4)cnc23)ccn1` [866405-64-3, AMPK Compound C], for which the “% SA-β-Gal + Cells Avg” value in assay [1] is 4.4%. The “% SAHF + Cells Avg” value in assay [2] was 15.9%. For the same molecule, in the assay on senescence, the “Prevention of senescence (reported)” value is given as “reported to prevent senescence”.
As for `O=C(Nc1cccc(Nc2nccc(Nc3cccc(C(F)(F)F)c3)n2)c1)C1CC1` [879127-16-9, Aurora Kinase Inhibitor III], in assay [1], the “% SA-β-Gal + Cells Avg” value stood at 5.7%. For the same molecule, the “% SAHF + Cells Avg” value in assay [2] is given as 15.8%.

These data come from patent US20140272947A1, “METHODS AND COMPOSITIONS FOR SCREENING MODULATORS OF ONCOGENE-INDUCED SENESCENCE” (Fox Chase Cancer Center, priority 2013, published 2014).
